Holding throughout (test): combination Emax (second highest fraction inhibited in the dose matrix, 72 h); higher = more inhibition; extreme values may be limits of the assay
The subject of one assay is AM-38 (Glioblastoma). An outline of the steps: (§1)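 Cell lines in DMEM/F12 or RPMI with 10% FBS were plated in 1536-well plates, held 24 hours at 37°C, 5% CO2, then given two-drug dose matrices for 72 hours (DMSO typically 0.2%). Viability was read by CellTiter-Glo 2.0 luminescence and scaled as inhibition from 0 (vehicle wells) to 1 (blank wells). Combination Emax is the second-highest inhibition in the matrix; Bliss excess is observed combination effect minus expected EA + EB − EA·EB, EA and EB being single-agent effects.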

Assay [1] deals with BHT-101 (Thyroid Gland Carcinoma). The essentials: as §1
Assay [2] has as its system BxPC-3 (Pancreatic Carcinoma). The essentials:
as §1

Assay [3] has as its system C-33-A (Cervical Carcinoma). The essentials: as §1
The test system of assay [4] is COR-L88 (Small Cell Lung Carcinoma). The essentials: as §1
Assay [5] deals with CPC-N (Small Cell Lung Carcinoma). The essentials: as §1
Assay [6] has as its system HT-1080 (Other Solid Carcinomas). An outline of the steps:
as §1

Assay [7] has as its system IA-LM (Non-Small Cell Lung Carcinoma). The essentials: as §1
Assay [8] deals with KP-4 (Pancreatic Carcinoma). An outline of the steps:
as §1

Assay [9] relates to LCLC-103H (Non-Small Cell Lung Carcinoma). The essentials:
as §1

The test system of assay [10] is LS-1034 (Colorectal Carcinoma). The essentials: as §1
In assay [11] the test system is MOLP-8 (Plasma Cell Myeloma). The essentials:
as §1

A further assay concerns NCI-H226 (Mesothelioma). The essentials: as §1
Assay [12] deals with NCI-H3118 (Head and Neck Carcinoma). The essentials:
as §1

In assay [13] the test system is OVCAR-3 (Ovarian Carcinoma). The essentials: as §1
Assay [14] concerns SAT (Head and Neck Carcinoma). An outline of the steps:
as §1

Assay [15] has as its system SCC-4 (Oral Cavity Carcinoma). The essentials:
as §1

The test system of the next assay is SK-N-SH (Neuroblastoma). An outline of the steps:
as §1

Assay [16] concerns SNU-C2B (Colorectal Carcinoma). An outline of the steps: as §1
The test system of another assay is UACC-257 (Melanoma). An outline of the steps:
as §1

Data on six molecules can be found in the supplement of paper PMC11061612.

For the molecule `C=CCn1c(=O)c2cnc(Nc3ccc(N4CCN(C)CC4)cc3)nc2n1-c1cccc(C(C)(C)O)n1` [AZD1775] + O=C(c1cc(Cc2n[nH]c(=O)c3ccccc23)ccc1F)N1CCN(C(=O)C2CC2)CC1 [Olaparib] (first compound max 1 µM, partner max 10 µM), the “combination Emax” value in the assay on AM-38 (Glioblastoma) turned out to be 0.496; in assay [1], 0.406; in assay [2] it was 0.511; in assay [3], 0.914; in assay [4], 0.594; in [5], 0.93. For the same molecule, the “combination Emax” value turned out to be 0.354 in assay [6]; 0.252 in assay [7]; 0.721 in assay [8]; 0.546 in assay [9]; 0.372 in assay [10]; 0.754 in assay [11]. In addition, the “combination Emax” value was determined as 0.342 in the assay on NCI-H226 (Mesothelioma); 0.889 in assay [12]; 0.532 in assay [13]; 0.449 in assay [14]; 0.496 in assay [15]; 0.882 in the assay on SK-N-SH (Neuroblastoma). The “combination Emax” value is 0.601 in assay [16] and 0.166 in the assay on UACC-257 (Melanoma).
Consider `CC1(C)CCC(CN2CCN(c3ccc(C(=O)NS(=O)(=O)c4ccc(NCC5CCOCC5)c([N+](=O)[O-])c4)c(Oc4cnc5[nH]ccc5c4)c3)CC2)=C(c2ccc(Cl)cc2)C1` [Venetoclax] + C[C@@H]1COCCN1C2=NC(=NC(=C2)C3(CC3)[S@](=N)(=O)C)C4=C5C=CNC5=NC=C4 [AZD6738] (first compound max 1 µM, 7x7, partner max 10 µM), for which the “combination Emax” value is 0.732 in the assay with AM-38 (Glioblastoma); 0.642 in [1]; 0.389 in [2]; 0.92 in assay [3]; 0.769 in assay [4]; 0.936 in [5]. Further, the “combination Emax” value turned out to be 0.425 in assay [6]; 0.435 in [7]; 0.418 in assay [8]; 0.55 in assay [9]; 0.624 in assay [10]; 0.75 in assay [11]. The “combination Emax” value with NCI-H226 (Mesothelioma) is 0.243; in [12] it was 0.568; in assay [13], 0.48; in assay [14], 0.423; in assay [15], 0.585; in the assay on SK-N-SH (Neuroblastoma), 0.915. The “combination Emax” value in assay [16] is 0.592; with UACC-257 (Melanoma) it was 0.169.
Consider `CN(CCO)CC[C@H](CSc1ccccc1)Nc1ccc(S(=O)(=O)NC(=O)c2ccc(N3CCC([C@@H](O)c4ccccc4-c4ccc(Cl)cc4)CC3)cc2)cc1S(=O)(=O)C(F)(F)F` [AZD4320] + C[C@@H](Nc1cc(F)cc(F)c1)c1cc(C(=O)N(C)C)cc2c(=O)cc(N3CCOCC3)oc12 [AZD8186] (first compound max 1 µM, 7x7, partner max 3 µM), for which the “combination Emax” value with AM-38 (Glioblastoma) stood at 0.905; in [1], 0.616; in assay [2], 0.252; in assay [3], 0.515; in assay [4], 0.966; in assay [5] it was 0.95. The “combination Emax” value in assay [6] was determined as 0.704; in [7], 0.617; in assay [8], 0.273; in assay [9], 0.507; in [10], 0.334; in assay [11], 0.414. The “combination Emax” value in the assay with NCI-H226 (Mesothelioma) was found to be 0.279; in [12], 0.39; in assay [13], 0.512; in assay [14], 0.446; in [15] it was 0.765; in the assay with SK-N-SH (Neuroblastoma) it was 0.986. The “combination Emax” value in assay [16] came out at 0.374; in the assay on UACC-257 (Melanoma) it was 0.269.
On to `CC1(C)CCC(CN2CCN(c3ccc(C(=O)NS(=O)(=O)c4ccc(NCC5CCOCC5)c([N+](=O)[O-])c4)c(Oc4cnc5[nH]ccc5c4)c3)CC2)=C(c2ccc(Cl)cc2)C1` [Venetoclax] + Cc1cc2ncnn2cc1Nc1ncc2c(n1)n(C1CCOCC1)c(=O)n2C [AZD7648] (first compound max 1 µM, 7x7, partner max 10 µM), for which the “combination Emax” value in the assay with AM-38 (Glioblastoma) turned out to be 0.318; in assay [1], 0.221; in assay [2] it was 0.283; in [3], 0.401; in assay [4] it was 0.515; in assay [5], 0.84. The “combination Emax” value in assay [6] worked out at 0.109; in assay [7], 0.261; in assay [8], 0.126; in assay [9] it was 0.282; in [10] it was 0.0935; in assay [11] it was 0.273. Moreover, the “combination Emax” value was determined as 0.171 in the assay on NCI-H226 (Mesothelioma); 0.137 in assay [12]; 0.196 in assay [13]; 0.284 in assay [14]; 0.235 in assay [15]; 0.543 with SK-N-SH (Neuroblastoma). For the same molecule, the “combination Emax” value is 0.26 in assay [16] and 0.159 with UACC-257 (Melanoma).
For `COc1nnc2ccc(N3CCC(c4ccc(OCCN5CCN(C)C(=O)[C@H]5C)cc4)CC3)nn12` [AZD5153] + C[C@@H]1COCCN1C2=NC(=NC(=C2)C3(CC3)[S@](=N)(=O)C)C4=C5C=CNC5=NC=C4 [AZD6738] (first compound max 1 µM, 7x7, partner max 10 µM), the “combination Emax” value with AM-38 (Glioblastoma) was 0.823; in assay [1], 0.816; in assay [2], 0.602; in [3], 0.958; in [4], 0.548; in [5], 0.967. The “combination Emax” value in assay [6] came to 0.579; in [7] it was 0.443; in assay [8], 0.77; in [9], 0.492; in assay [10] it was 0.758; in [11] it was 0.987. Besides, the “combination Emax” value with NCI-H226 (Mesothelioma) was 0.37; in assay [12], 0.61; in [13] it was 0.821; in [14], 0.804; in assay [15], 0.732; with SK-N-SH (Neuroblastoma), 0.861. In addition, the “combination Emax” value in assay [16] was 0.658; with UACC-257 (Melanoma), 0.394.
With `CN(CCO)CC[C@H](CSc1ccccc1)Nc1ccc(S(=O)(=O)NC(=O)c2ccc(N3CCC([C@@H](O)c4ccccc4-c4ccc(Cl)cc4)CC3)cc2)cc1S(=O)(=O)C(F)(F)F` [AZD4320] + C1CN(CCC1(C(=O)N[C@@H](CCO)C2=CC=C(C=C2)Cl)N)C3=NC=NC4=C3C=CN4 [Capivasertib] (first compound max 1 µM, 7x7, partner max 3 µM), the “combination Emax” value in the assay on AM-38 (Glioblastoma) came to 0.561; in assay [1], 0.351; in [2], 0.0788; in [3], 0.518; in [4], 0.971; in assay [5] it was 0.945. Besides, the “combination Emax” value in assay [6] was determined as 0.5; in [7], 0.376; in assay [8], 0.101; in assay [9], 0.238; in assay [10], 0.275; in assay [11] it was 0.254. Besides, the “combination Emax” value with NCI-H226 (Mesothelioma) was 0.227; in [12], 0.0845; in [13] it was 0.147; in assay [14], 0.418; in [15] it was 0.598; with SK-N-SH (Neuroblastoma) it was 0.707. Further, the “combination Emax” value is 0.201 in assay [16] and 0.1 in the assay with UACC-257 (Melanoma).
